Assay results from article PMC5997768 (2018).

Tested on: rats with CCI
Settings: rat, in vivo, iv

## C=CC[N+]1(C)CC[C@]23c4c5ccc(O)c4O[C@H]2C(=O)CC[C@@]3(O)[C@H]1C5 (some centres unmarked) [NLXM, naloxone methiodide]
  Effect on FF3-induced analgesia (PPT) in ipsilateral limbs: abolished
  Effect on PPT in contralateral paws: No changes were observed
